The values below come from ChEMBL document CHEMBL1201862, “PubChem BioAssay data set” (2004).

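Growth conditions: 96-well plates. Treatment: test compound, 48 hours, 5 concentrations. Analysis: linear interpolation between bracketing concentrations; unreached endpoints set to highest concentration. GI50 marks 50% less growth.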 The source made the active and inactive calls. Rule as the data show it: active = GI50 up to about 1.1 µM and inactive = higher.

As a reminder, the GI50 is the concentration at which growth is held to half of that of the control.

Some test systems named below: HCT-15; SK-MEL-2; U-251; M14; LOX IMVI; SNB-75; 786-0; HCT-116; OVCAR-5; K562; OVCAR-4; A498; HT-29; CCRF-CEM; IGROV-1; SW-620; SK-MEL-28; SF-539.
Assay in all cases: DTP human tumour cell line panel, 48 h

`COC(=O)C[C@H]1CCC2(OCCO2)[C@]1(C)C(=O)OC`: the concentration for 50% growth inhibition (GI50) is > 100 µM with HCT-15; > 100 µM (inactive) with SK-MEL-2; > 100 µM (inactive) in the assay on U-251; > 100 µM (inactive) with M14; > 100 µM (inactive) in the assay on LOX IMVI; > 100 µM (inactive) in the assay on SNB-75. The GI50 in the assay with 786-0, in the assay on HCT-116, with OVCAR-5, in the assay on K562, in the assay with OVCAR-4 and in the assay on A498 was > 100 µM (inactive) throughout. Further, the GI50 in the assay with HT-29, with CCRF-CEM, in the assay with IGROV-1, with SW-620, in the assay with SK-MEL-28 and in the assay with SF-539 was > 100 µM (inactive) each time.
Take `CN(C)CCC(=O)/C=C\c1ccccc1`: the 50% growth inhibitory concentration (GI50) in the assay with HCT-15 was 16.1 µM; with U-251, 17.5 µM (inactive); in the assay on M14 it was 16.7 µM (inactive); in the assay with LOX IMVI it was 14.3 µM (inactive); in the assay on SNB-75, 60.1 µM (inactive); in the assay with 786-0 it was 16.3 µM (inactive). Moreover, the GI50 with HCT-116 was 15.3 µM (inactive); in the assay with OVCAR-5, 20.9 µM (inactive); with K562 it was 13.2 µM (inactive); with OVCAR-4, 19.1 µM (inactive); in the assay with A498, 20 µM (inactive); in the assay with HT-29, 19.5 µM (inactive). Moreover, the GI50 with CCRF-CEM was 4.06 µM (inactive); in the assay on IGROV-1, 24.5 µM (inactive); in the assay on SW-620 it was 18.5 µM (inactive); in the assay with SK-MEL-28, 16.9 µM (inactive); with SF-539 it was 16.8 µM (inactive).
On to `COc1ccc(NC(=O)/C(Cc2nc3ccccc3nc2O)=N\O)c(OC)c1`, for which the GI50 was > 100 µM in the assay with HCT-15; > 100 µM (inactive) in the assay with U-251; > 100 µM (inactive) in the assay on M14; > 100 µM (inactive) in the assay with LOX IMVI; > 100 µM (inactive) in the assay on SNB-75; > 100 µM (inactive) in the assay on 786-0. Besides, the GI50 in the assay with HCT-116, with OVCAR-5, with K562, in the assay with OVCAR-4, in the assay with A498 and in the assay on HT-29 was > 100 µM (inactive) each time. The GI50 with CCRF-CEM, in the assay on IGROV-1, with SW-620, in the assay with SK-MEL-28 and in the assay on SF-539 was > 100 µM (inactive) each time.
Consider `COc1ccc([C@@H]2CC(=O)NCCCCNCCCN2)cc1`, for which the 50% growth inhibitory concentration (GI50) in the assay on HCT-15 was > 100 µM; in the assay on SK-MEL-2, > 100 µM (inactive); with U-251, > 100 µM (inactive); with M14 it was > 100 µM (inactive); in the assay on SNB-75 it was > 100 µM (inactive); in the assay with 786-0 it was > 100 µM (inactive). Also, the GI50 in the assay with HCT-116, in the assay on OVCAR-5, in the assay with K562, in the assay on OVCAR-4, with A498 and in the assay on HT-29 was > 100 µM (inactive) throughout. Moreover, the GI50 with CCRF-CEM, with IGROV-1, in the assay with SW-620, in the assay with SK-MEL-28 and in the assay on SF-539 was > 100 µM (inactive) each time.
Consider `CC1(C)OC2C(CCP(=O)(O)O)OC(c3nc(C(N)=O)cs3)C2O1` (configuration not stated), for which the GI50 with HCT-15 was > 100 µM; in the assay with SK-MEL-2, > 100 µM (inactive); in the assay on U-251, > 100 µM (inactive); in the assay with M14, > 100 µM (inactive); in the assay with LOX IMVI, > 100 µM (inactive); in the assay on SNB-75, > 100 µM (inactive). For the same molecule, the GI50 in the assay on 786-0, in the assay on HCT-116, with OVCAR-5, in the assay on K562, in the assay on OVCAR-4 and in the assay with A498 was > 100 µM (inactive) in each case. In addition, the GI50 in the assay on HT-29, with CCRF-CEM, with IGROV-1, in the assay on SW-620 and in the assay with SK-MEL-28 was > 100 µM (inactive) throughout.
Consider `CCN(CC)CCCCC1CCN(CC(=O)N2c3ccccc3NC(=O)CC2C)CC1` (configuration not stated), for which the 50% growth inhibitory concentration (GI50) in the assay on HCT-15 was > 100 µM; in the assay with SK-MEL-2 it was > 100 µM (inactive); in the assay on U-251, > 100 µM (inactive); in the assay on M14, > 100 µM (inactive); in the assay with LOX IMVI, 19.4 µM (inactive); with SNB-75, > 100 µM (inactive). The GI50 in the assay on 786-0, in the assay with HCT-116, in the assay on OVCAR-5, in the assay on K562, with OVCAR-4 and in the assay on A498 was > 100 µM (inactive) throughout. Also, the GI50 is > 100 µM (inactive) in the assay on HT-29; 65.8 µM (inactive) in the assay on CCRF-CEM; > 100 µM (inactive) with IGROV-1; > 100 µM (inactive) in the assay with SW-620; > 100 µM (inactive) in the assay with SK-MEL-28; > 100 µM (inactive) with SF-539.
Turning to `C[C@]12CC[C@H](OC(=O)Cc3ccc(N(CCCl)CCCl)cc3)CC1CC[C@@H]1C2CC[C@]2(C)NC(=O)CCC12` (some centres not stated), the GI50 was 13.9 µM with HCT-15; 25.5 µM (inactive) with SK-MEL-2; 11.2 µM (inactive) with U-251; 13.2 µM (inactive) in the assay on M14; 13.2 µM (inactive) in the assay with LOX IMVI; 10.1 µM (inactive) in the assay with SNB-75. The GI50 with 786-0 was 11.5 µM (inactive); in the assay with HCT-116, 5.11 µM (inactive); in the assay on K562 it was 4.06 µM (inactive); in the assay on OVCAR-4 it was 12.2 µM (inactive); in the assay with A498, 18.9 µM (inactive); in the assay with HT-29, 1.87 µM (inactive). The GI50 in the assay on CCRF-CEM was 3.54 µM (inactive); with IGROV-1, 14 µM (inactive); in the assay with SW-620, 9.33 µM (inactive); in the assay with SK-MEL-28, 15 µM (inactive); in the assay on SF-539, 3.5 µM (inactive).
Consider `CCCCCCCCCCCCCC(=O)OCC1OC(n2cc(F)c(=O)[nH]c2=O)C(N)C(OC(=O)CCCCCCCCCCCCC)C1O` (configuration not stated), for which the GI50 with HCT-15 was > 100 µM; in the assay on SK-MEL-2, > 100 µM (inactive); in the assay with U-251, > 100 µM (inactive); in the assay with M14, > 100 µM (inactive); in the assay on LOX IMVI, > 100 µM (inactive); in the assay with SNB-75, > 100 µM (inactive). For the same molecule, the GI50 in the assay on 786-0, with HCT-116, in the assay on K562, in the assay with OVCAR-4, in the assay on A498 and in the assay with HT-29 was > 100 µM (inactive) each time. Also, the GI50 was > 10 µM (inactive) with CCRF-CEM, > 100 µM (inactive) in the assay on SW-620, > 100 µM (inactive) in the assay with SK-MEL-28 and 42.7 µM (inactive) with SF-539.
Regarding `O=C1CC2CCCC23CC2(CCN13)OCCO2` (configuration not stated), the GI50 in the assay with SK-MEL-2, in the assay on U-251, in the assay with M14, with LOX IMVI, in the assay on SNB-75 and with 786-0 was > 100 µM (inactive) throughout. Further, the GI50 in the assay with HCT-116, in the assay with OVCAR-5, with K562, with OVCAR-4, with A498 and in the assay with HT-29 was > 100 µM (inactive) in each case. Moreover, the GI50 in the assay with CCRF-CEM, in the assay with IGROV-1, with SW-620, in the assay with SK-MEL-28 and in the assay on SF-539 was > 100 µM (inactive) in each case.
For `Cc1cc(C)c2[s+]snc2c1`, the GI50 in the assay with SK-MEL-2 is 75 µM (inactive); with U-251, 48.9 µM (inactive); in the assay with M14 it was 37.8 µM (inactive); in the assay on LOX IMVI, 37.8 µM (inactive); with SNB-75 it was > 100 µM (inactive); in the assay with 786-0 it was > 100 µM (inactive). Also, the GI50 was 39.3 µM (inactive) with HCT-116; > 100 µM (inactive) with OVCAR-5; 27.7 µM (inactive) in the assay with K562; > 100 µM (inactive) in the assay with OVCAR-4; 37.7 µM (inactive) in the assay on A498; 52.5 µM (inactive) in the assay on HT-29. Besides, the GI50 in the assay on CCRF-CEM was 28.5 µM (inactive); in the assay on IGROV-1, > 100 µM (inactive); with SW-620, 37.6 µM (inactive); in the assay on SK-MEL-28, 62.1 µM (inactive); in the assay on SF-539 it was 70 µM (inactive).
For the molecule `COc1ccc(C(=O)C#Cc2cnc(O)nc2O)cc1`, the GI50 in the assay on HCT-15 is 7.83 µM; with SK-MEL-2 it was 7.46 µM (inactive); with U-251, 9.29 µM (inactive); with M14 it was 5.85 µM (inactive); with LOX IMVI it was 3.21 µM (inactive); in the assay with SNB-75 it was 23.8 µM (inactive). Besides, the GI50 with 786-0 is 9.06 µM (inactive); in the assay on HCT-116 it was 6.03 µM (inactive); in the assay with OVCAR-5, 17.1 µM (inactive); in the assay with K562, 3.61 µM (inactive); in the assay on OVCAR-4, 16.8 µM (inactive); with A498, 23.7 µM (inactive). The GI50 is 11.5 µM (inactive) in the assay on HT-29; 2.52 µM (inactive) in the assay with CCRF-CEM; > 42.2 µM (inactive) in the assay with IGROV-1; 5.69 µM (inactive) in the assay on SW-620; 14 µM (inactive) with SK-MEL-28; 7.33 µM (inactive) in the assay with SF-539.
On to `CC[C@@]1(O)C(=O)OCc2c1cc1n(c2=O)Cc2cc3c(OC)cccc3nc2-1`, for which the concentration for 50% growth inhibition (GI50) is 0.805 µM in the assay on HCT-15; 0.834 µM (active) with SK-MEL-2; 0.2 µM (active) in the assay with M14; < 0.1 µM (active) with LOX IMVI; 0.0622 µM (active) with SNB-75; 0.211 µM (active) in the assay on 786-0. Moreover, the concentration for 50% growth inhibition (GI50) in the assay with OVCAR-5 is 0.417 µM (active); in the assay on K562, 0.171 µM (active); with OVCAR-4, 1.06 µM (active); in the assay on A498 it was 0.6 µM (active); in the assay on CCRF-CEM, < 0.01 µM (active); in the assay on SW-620, 0.196 µM (active). In the assay on SF-539, the GI50 was < 0.1 µM (active).
